Data published in paper PMC2858402 (Chemical biology & drug design, 2009).

Key:
[1] = biological target: Full-length DnaK (FL, flDnaK) (Escherichia coli, UniProt P0A6Y8); test: isothermal titration calorimetry; assay type: binding
[2] = biological target: β-domain of DnaK (SBD), residues 393–507 (Escherichia coli, UniProt P0A6Y8); test: isothermal titration calorimetry; assay type: binding
β-domain of DnaK (SBD), residues 393–507, sequence (P0A6Y8 393-507): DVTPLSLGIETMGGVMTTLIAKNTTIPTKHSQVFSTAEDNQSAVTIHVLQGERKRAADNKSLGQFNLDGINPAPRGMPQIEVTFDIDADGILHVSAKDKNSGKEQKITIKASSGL

Full-length DnaK (FL, flDnaK), sequence (P0A6Y8 2-638): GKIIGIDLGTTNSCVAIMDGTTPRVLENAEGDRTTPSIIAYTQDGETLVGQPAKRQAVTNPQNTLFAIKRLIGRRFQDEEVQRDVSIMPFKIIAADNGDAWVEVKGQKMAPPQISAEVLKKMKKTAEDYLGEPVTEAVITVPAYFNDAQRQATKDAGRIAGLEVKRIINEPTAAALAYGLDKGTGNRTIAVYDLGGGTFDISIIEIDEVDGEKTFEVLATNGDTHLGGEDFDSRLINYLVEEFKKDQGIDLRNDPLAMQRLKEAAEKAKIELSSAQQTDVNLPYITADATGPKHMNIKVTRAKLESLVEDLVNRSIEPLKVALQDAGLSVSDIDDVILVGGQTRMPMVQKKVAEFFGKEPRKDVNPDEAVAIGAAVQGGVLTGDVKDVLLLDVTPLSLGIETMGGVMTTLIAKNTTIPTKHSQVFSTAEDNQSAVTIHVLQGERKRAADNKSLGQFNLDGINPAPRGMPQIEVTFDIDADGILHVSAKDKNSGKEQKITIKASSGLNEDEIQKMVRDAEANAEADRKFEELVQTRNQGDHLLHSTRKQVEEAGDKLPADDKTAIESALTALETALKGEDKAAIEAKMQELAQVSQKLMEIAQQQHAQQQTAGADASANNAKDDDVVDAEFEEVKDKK

Structure (SMILES) | Kd [1] | Kd [2]
Nc1ncnc2c1ncn2[C@@H]1O[C@H](COP(=O)(O)OP(=O)(O)OP(=O)(O)O)[C@@H](O)[C@H]1O [ATP] | 10 nM | –
O=C(NCc1cccc2ccccc12)c1cccs1 [D5, N-(naphthalen-1-ylmethyl)thiophene-2-carboxamide] | 1700 nM | 1000 nM
O=C(Nc1ccc2[nH]ccc2c1)c1cccs1 [D7, N-(1H-indol-5-yl)thiophene-2-carboxamide] | 12700 nM | 4900 nM
O=C(Nc1ncc2ccccc2n1)c1cccs1 [D9, N-(quinazolin-2-yl)thiophene-2-carboxamide] | – | 1500 nM
O=C(NCc1cccc2ccsc12)c1cccs1 [D10, N-(benzo[b]thiophen-7-ylmethyl)thiophene-2-carboxamide] | 200 nM | –
O=C(NCc1ccc(Cl)c(Cl)c1)c1cccs1 [F6, N-(3,4-dichlorobenzyl)thiophene-2-carboxamide] | 7300 ± 6400 nM | –
O=C(NCc1c(Cl)cccc1Cl)c1cccs1 [F7, N-(2,6-dichlorobenzyl)thiophene-2-carboxamide] | 1500 nM | –
O=C(NCc1ccccc1O)c1cccs1 [F8, N-(2-hydroxybenzyl)thiophene-2-carboxamide] | 2300 nM | –
O=C(NCc1cc(Cl)cc(Cl)c1)c1cccs1 [F9, N-(3,5-dichlorobenzyl)thiophene-2-carboxamide] | 2800 nM | –
O=C(c1cccs1)N1CCN(CCO)CC1 [F10, (4-(2-hydroxyethyl)piperazin-1-yl)(thiophen-2-yl)methanone] | 16700 nM | –
